# Measured values published in ChEMBL document CHEMBL3739395, “Discovery and optimisation of 1-acyl-2-benzylpyrrolidines as potent dual orexin receptor antagonists” (Medchemcomm, 2015).
# Calls of active or inactive are those of the source. The rule behind the calls is not given here.
# How the values were obtained:
# [1] = Drug uptake in Wistar rat cerebrospinal fluid at 100 mg/kg, po measured 3 hrs post dose; format: ADME, organism-based; settings: read-out: Drug uptake
# [2] = target: T1, Orexin/Hypocretin receptor type 1 (Rattus norvegicus) (UniProt P56718); assay: Insurmountable antagonist activity against rat orexin-1 receptor expressed in CHO cells assessed as calcium release at IC50 preincubated for 120 mins followed by addition of orexin-A by Cheng-Prusoff equation analysis; format: functional, cell-based
# T1 sequence (whole entry): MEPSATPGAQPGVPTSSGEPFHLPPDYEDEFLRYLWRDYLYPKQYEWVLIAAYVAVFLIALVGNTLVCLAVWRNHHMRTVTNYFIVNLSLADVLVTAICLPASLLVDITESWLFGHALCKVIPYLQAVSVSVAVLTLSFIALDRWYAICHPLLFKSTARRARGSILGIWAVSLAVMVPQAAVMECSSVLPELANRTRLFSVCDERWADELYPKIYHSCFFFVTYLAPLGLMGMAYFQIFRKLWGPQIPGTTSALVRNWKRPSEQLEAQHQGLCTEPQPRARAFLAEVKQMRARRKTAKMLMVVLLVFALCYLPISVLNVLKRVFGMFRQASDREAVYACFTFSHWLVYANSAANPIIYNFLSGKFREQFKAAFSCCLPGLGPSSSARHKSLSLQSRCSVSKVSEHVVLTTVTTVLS
# [3] = target: T2, Orexin receptor type 2 (Rattus norvegicus) (UniProt P56719); assay: Insurmountable antagonist activity against rat orexin-2 receptor expressed in CHO cells assessed as calcium release at IC50 preincubated for 120 mins followed by addition of orexin-A by Cheng-Prusoff equation analysis; format: functional, cell-based
# T2 sequence (whole entry): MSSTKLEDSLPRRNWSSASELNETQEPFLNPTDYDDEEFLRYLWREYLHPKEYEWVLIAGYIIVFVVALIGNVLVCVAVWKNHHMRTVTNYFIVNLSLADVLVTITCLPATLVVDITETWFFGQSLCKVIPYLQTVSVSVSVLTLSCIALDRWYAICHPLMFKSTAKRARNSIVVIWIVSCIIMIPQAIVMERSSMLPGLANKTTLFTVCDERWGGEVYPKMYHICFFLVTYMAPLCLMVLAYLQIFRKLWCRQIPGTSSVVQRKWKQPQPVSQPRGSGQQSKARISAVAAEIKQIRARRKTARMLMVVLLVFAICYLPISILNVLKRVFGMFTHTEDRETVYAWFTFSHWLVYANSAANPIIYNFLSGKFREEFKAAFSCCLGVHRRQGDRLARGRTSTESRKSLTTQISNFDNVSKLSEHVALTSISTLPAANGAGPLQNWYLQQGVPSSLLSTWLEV
# [4] = Fraction unbound in rat plasma; format: ADME, cell-free
# [5] = Fraction unbound in rat brain; format: ADME, tissue-based
# [6] = Ratio of drug level in brain to plasma of rat; format: ADME; settings: brain and plasma, read-out: BPR
# [7] = tested on: Brain; assay: Free drug level in rat brain; format: ADME, tissue-based; settings: in vivo
# [8] = target: T3, Orexin receptor type 2 (Homo sapiens, UniProt O43614); assay: Inhibition of human orexin-2 receptor expressed in CHO cells assessed as calcium release preincubated for 120 mins followed by addition of orexin-A by fluo-4 AM based-FLIPR analysis; format: functional, cell-based
# T3 sequence (O43614 whole entry): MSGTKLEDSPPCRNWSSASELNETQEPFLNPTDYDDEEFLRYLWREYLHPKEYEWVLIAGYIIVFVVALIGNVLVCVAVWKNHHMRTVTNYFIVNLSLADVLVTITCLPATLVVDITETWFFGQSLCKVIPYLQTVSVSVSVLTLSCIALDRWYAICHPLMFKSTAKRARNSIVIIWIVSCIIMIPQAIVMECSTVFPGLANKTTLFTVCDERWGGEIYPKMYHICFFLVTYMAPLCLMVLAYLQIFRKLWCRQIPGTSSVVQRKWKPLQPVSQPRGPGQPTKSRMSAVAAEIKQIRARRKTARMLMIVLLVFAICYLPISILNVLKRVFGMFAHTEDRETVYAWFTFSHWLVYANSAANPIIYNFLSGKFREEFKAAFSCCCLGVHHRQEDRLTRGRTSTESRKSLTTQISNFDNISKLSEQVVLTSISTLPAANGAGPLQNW
# [9] = Intrinsic clearance in human liver microsomes at 1 uM; format: ADME; settings: read-out: CLH
# [10] = Intrinsic clearance in rat liver microsomes at 1 uM; format: ADME; settings: read-out: CLH
# [11] = target: T4, Orexin/Hypocretin receptor type 1 (Homo sapiens, UniProt O43613); assay: Inhibition of human orexin-1 receptor expressed in CHO cells assessed as calcium release preincubated for 120 mins followed by addition of orexin-A by fluo-4 AM based-FLIPR analysis; format: functional, cell-based
# T4 sequence (O43613 whole entry): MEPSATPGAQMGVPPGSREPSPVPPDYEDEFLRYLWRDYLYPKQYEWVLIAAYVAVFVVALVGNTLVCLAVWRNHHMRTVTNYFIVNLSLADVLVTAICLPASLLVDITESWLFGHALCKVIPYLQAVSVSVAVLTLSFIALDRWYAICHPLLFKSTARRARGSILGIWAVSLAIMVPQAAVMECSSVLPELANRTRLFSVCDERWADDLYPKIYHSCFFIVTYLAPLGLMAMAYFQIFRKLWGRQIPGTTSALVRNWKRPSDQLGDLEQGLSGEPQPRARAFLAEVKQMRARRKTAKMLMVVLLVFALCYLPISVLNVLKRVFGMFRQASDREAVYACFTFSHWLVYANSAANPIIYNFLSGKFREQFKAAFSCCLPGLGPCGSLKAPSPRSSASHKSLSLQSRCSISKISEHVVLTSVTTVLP
# [12] = target: T5, Orexin/Hypocretin receptor type 1 (Homo sapiens) (UniProt O43613); assay: Insurmountable antagonist activity against human orexin-1 receptor expressed in CHO cells assessed as calcium release at IC50 preincubated for 120 mins followed by addition of orexin-A by Cheng-Prusoff equation analysis; format: functional, cell-based
# T5 sequence (whole entry): T4 sequence (O43613 whole entry)
# [13] = target: T6, Orexin receptor type 2 (Homo sapiens) (UniProt O43614); assay: Insurmountable antagonist activity against human orexin-2 receptor expressed in CHO cells assessed as calcium release at IC50 preincubated for 120 mins followed by addition of orexin-A by Cheng-Prusoff equation analysis; format: functional, cell-based
# T6 sequence (whole entry): T3 sequence (O43614 whole entry)
# [14] = target: T5, Orexin/Hypocretin receptor type 1 (Homo sapiens); assay: Competitive antagonist activity against human orexin-1 receptor expressed in CHO cells assessed as shift in orexin-A CRC at IC50 incubated for 120 mins in presence of orexin-A by Cheng-Prusoff equation analysis; format: cell-based
# [15] = target: T6, Orexin receptor type 2 (Homo sapiens); assay: Competitive antagonist activity against human orexin-2 receptor expressed in CHO cells assessed as shift in orexin-A CRC at IC50 incubated for 120 mins in presence of orexin-A by Cheng-Prusoff equation analysis; format: cell-based
# [16] = tested on: Rattus norvegicus; assay: Reduction in home cage activity in Wistar rat sleep model at 100 mg/kg, po administered as single dose during first 6 hrs of night active period post dose relative to vehicle control; format: functional; design: scale not given: the % may be the effect or the level left
# [17] = tested on: Rattus norvegicus; assay: Sleep promoting effect in Wistar rat sleep model at 100 mg/kg, po administered as single dose during first 6 hrs of night active period post dose relative to vehicle control; format: functional, organism-based
# [18] = target: T5, Orexin/Hypocretin receptor type 1 (Homo sapiens); assay: Inhibition of human orexin-1 receptor expressed in CHO cells assessed as time duration for Kb change preincubated for 120 mins followed by stimulation with orexin-A post compound washout by FLIPR assay; format: cell-based
# [19] = target: T6, Orexin receptor type 2 (Homo sapiens); assay: Inhibition of human orexin-2 receptor expressed in CHO cells assessed as time duration for Kb change preincubated for 120 mins followed by stimulation with orexin-A post compound washout by FLIPR assay; format: cell-based
# [20] = tested on: Rattus norvegicus; assay: Reduction in time spent in active wake state in Wistar rat sleep model at 100 mg/kg, po administered as single dose during first 6 hrs of night active period post dose relative to vehicle control; format: functional; design: scale not given: the % may be the effect or the level left
# [21] = tested on: Rattus norvegicus; assay: Increase in time spent in quiet wake state in Wistar rat sleep model at 100 mg/kg, po administered as single dose during first 6 hrs of night active period post dose relative to vehicle control; format: functional
# [22] = tested on: Rattus norvegicus; assay: Increase in time spent in non-rapid eye movement sleep in Wistar rat sleep model at 100 mg/kg, po administered as single dose during first 6 hrs of night active period post dose relative to vehicle control; format: functional
# [23] = tested on: Rattus norvegicus; assay: Increase in time spent in rapid eye movement sleep in Wistar rat sleep model at 100 mg/kg, po administered as single dose during first 6 hrs of night active period post dose relative to vehicle control; format: functional
# [24] = target: T5, Orexin/Hypocretin receptor type 1 (Homo sapiens); settings: CHO
# Description: Inhibition of human orexin-1 receptor expressed in CHO cells assessed as occupancy half life preincubated for 120 mins followed by stimulation with orexin-A post compound washout measured at 0 to 30 mins by FLIPR assay
# [25] = target: T6, Orexin receptor type 2 (Homo sapiens); settings: CHO
# Description: Inhibition of human orexin-2 receptor expressed in CHO cells assessed as occupancy half life preincubated for 120 mins followed by stimulation with orexin-A post compound washout measured at 0 to 30 mins by FLIPR assay
smiles,measurement,setting,value
COc1ccc(C[C@@H]2CCCN2C(=O)c2nc(C)sc2-c2ccc3c(c2)OCO3)cc1OC,concentration at 3 h,[1],133 ng/mL
same,Kb,[2],7.3 nM
same,Kb,[3],1.7 nM
same,fraction unbound,[4],0.027
same,fraction unbound,[5],0.04
same,Kp,[6],0.68
same,Drug uptake(free),[7],60 nM
same,IC50,[8],6.6 nM
same,microsomal CLint at 1 µM,[9],197 µL/min/mg
same,microsomal CLint at 1 µM,[10],> 1250 µL/min/mg
same,IC50,[11],11 nM
same,Kb,[12],5.3 nM
same,Kb,[13],1.4 nM
same,inhibition,[14],Active
same,inhibition,[15],Active
same,Activity,[16],47%
same,Activity,[17],Active
same,TIME,[18],0.0833 h
same,TIME,[19],0.333 h
same,Activity,[20],-29%
same,Activity,[21],17%
same,Activity,[22],18%
same,Activity,[23],84%
same,T1/2,[24],1.1 min
same,T1/2,[25],5.4 min
